Results published in patent publication US20070259865A1, “Agent for Promoting the Recovery from Dysfunction After the Onset of Central Neurological Disease” (Astellas Pharma Inc., priority 2004, published 2007).

Legend:
[1] = tested on: spontaneous hypertension rats; test: Effect on the circulatory system (heart rate); type: in vivo, rat
Procedure: After a cannula was inserted into the common carotid artery, heart rates were monitored. […] For the control group, physiological saline was administered intraperitoneally and the measurement was similarly conducted. Statistical analysis was conducted by one-way repeated-measures analysis of variance.

[2] = tested on: cerebral infarction rat model; test: Foot-fault test, walking function in cerebral infarction rat model; type: in vivo; details: vs. control group; forepaw on the disordered side; Compound A 5 and 10 mg/kg; D-amphetamine 0.75 and 1.5 mg/kg intraperitoneally; FIGS. 1-3 (b)
From the text: (§1) Blood Flow Metab. 8, 474-485, 1988.

[3] = tested on: cerebral infarction rat model; test: Staircase test, forepaw function in cerebral infarction rat model; details: vs. control group, Compound A 5 mg/kg orally five times per week, D-amphetamine 1.5 mg/kg intraperitoneally twice per week, to week 6; for forepaw dysfunction, number of displaced pellets in the staircase test: FIG. 4 (a); for forepaw dysfunction, number of eaten pellets in the staircase test: FIG. 4 (b)
[4] = tested on: cerebral infarction rat model; test: Beam-walking test, walking function in cerebral infarction rat model; type: in vivo; details: vs. control group; male spontaneous hypertension rats after MCA occlusion; Compound A 5 and 10 mg/kg; D-amphetamine 0.75 and 1.5 mg/kg intraperitoneally; FIGS. 1-3 (a)
From the text: as §1

[5] = tested on: cerebral infarction rat model; details: D-amphetamine 0.75 and 1.5 mg/kg, FIG. 5

Cl.Fc1ccc(OC[C@@H]2CNCCO2)c2c1CCC2 [Compound A, (S)-2-[[(7-Fluoro-4-indanyl)oxy]methyl]morpholine hydrochloride]
effect on heart rate ([1]; rat, in vivo): no effect on heart rate | improvement effect on gait function in the foot-fault test (% foot-faults) [2]: significant improvement effect | forepaw dysfunction, number of displaced pellets in the staircase test [3]: significant improvement effect | forepaw dysfunction, number of eaten pellets in the staircase test [3]: significant improvement effect | improvement effect on gait function in the beam-walking test (score) [4]: significant improvement effect

C[C@H](N)Cc1ccccc1 [D-amphetamine]
effect on heart rate ([1]; recorded until 4 hours after administration, Compound A orally, D-amphetamine intraperitoneally, vs. basal value, FIG. 6): significant accentuation of heart rate | forepaw dysfunction, number of displaced pellets in the staircase test [3]: the effect was not significant | forepaw dysfunction, number of eaten pellets in the staircase test [3]: the effect was not significant | effect on the number of steps (locomotor activity, excitatory effect) [5]: remarkable increase in the number of steps

CNCCC(Oc1ccc(C(F)(F)F)cc1)c1ccccc1 (centres unmarked) [fluoxetine, Fluoxetine]
improvement effect on gait function in the foot-fault test (% foot-faults) [2]: no evident improvement effect | improvement effect on gait function in the beam-walking test (score) [4]: no evident improvement effect
